Reference: patent publication US9951467B2, “Bacteriostatically treating method” (JNC CORPORATION, priority 2009, dated 2018)

Experiments:
E. coli = test: Antibacterial test on fiber samples immersed in polycationic polypeptide aqueous solution, bactericidal activity value (L); assay type: cell-based, Escherichia coli
From the text: (§1) Here, the bactericidal activity value (L) is defined by the following equation (for details, see the Approval Standard for Antibacterial and Deodorant Textile Products set forth by the Japan Textile Evaluation Technology Council (JTETC)). When this value (L) is ≥0, the textile product is considered to have an antibacterial effect, and it becomes eligible to be approved as a bacteriostatically treated textile product (with SEK Mark).
(§2) L (bactericidal activity value)=(Ma−Mc)
(§3) Ma: Average common logarithm value of the viable cell count or the ATP amount, which was measured for three samples immediately after the inoculation thereof onto a standard cloth.
(§4) Mc: Average common logarithm value of the viable cell count or the ATP amount, which was measured for three samples after 18 hours of culturing on an antibacterially treated cloth.
(§5) Threads, each of which was cut into 0.4 g in weight, were used as the fiber samples. Into a polycationic polypeptide aqueous solution of a prescribed concentration which was heated to a prescribed temperature (25, 50 or 75° C.), the samples were immersed for a prescribed period of time. The followings were used as the polycationic polypeptide.
(§6) Then, the fiber samples were washed by a simple method which was modified from the washing method according to JIS L-0217 103 (“Antimicrobial Agent of SENKA Corporation”; Everything about antimicrobial agents, p. 595-598, 1997, Sen-i Co., Ltd.), and the thus washed samples were dried in the air. The washing method was carried out by the following steps.
(§7) (1) Water having a temperature of 40° C. is filled into the washer water tank up to the highest line for the water level. To this water, “JAFET standard detergent (polyoxyethylene alkyl ether)” is added at a ratio of 40 mL of the detergent to 30 L of water to obtain washing solution.
(§8) (2) The fiber samples are placed into the washing solution in such a manner that the bath ratio (the weight ratio of the fibers and the washing solution at the time of washing of the fibers after the immersion) becomes 1:30, and the washing machine is operated for 25 minutes.
(§9) (3) The fiber samples are dehydrated by a dehydrator. The dehydration is carried out for 7 to 8 minutes.
(§10) (4) The washing solution is replaced with fresh water at room temperature, and rinsing and washing are performed in the filled water for 4 minutes at the same bath ratio.
(§11) (5) The fiber samples are dehydrated by a dehydrator. The dehydration is carried out for 7 to 8 minutes.
(§12) (6) Rinsing and washing are performed with running water for 2 minutes.
(§13) (7) Considering the above (1) to (6) as 5 washings, these steps are repeated twice to have the fiber samples be “washed 10 times”.
(§14) (8) The fiber samples are dehydrated by a dehydrator.
(§15) A bacterial suspension which was cultured in normal broth at 30° C. for 18 hours was mixed and diluted to prepare a diluted bacterial suspension having a concentration of 10^6 cells/mL. Placed into a vial was 0.4 g of fiber sample which was not washed or washed 10 times. Thereto inoculated was 400 μL of the diluted bacterial suspension, which was then allowed to soak into the sample, and the sample was incubated at 37° C. After 18 hours, 20 mL of physiological saline was added to the vial and the resultant was stirred using a mixer (5 seconds×5 times) to suspend the bacterial cells. The thus obtained suspension was diluted as appropriate, and the number of bacterium was counted to calculate the bactericidal activity value (L) based on the aforementioned equation. Here, the tested bacteria were E. coli and S. aureus.

S. aureus = test: as above; assay type: cell-based, Staphylococcus aureus
From the text: as §1, §2, §3, §4, §5, §6, §7, §8, §9, §10, §11, §12, §13, §14, §15

[1] = Acryl 100% thread, immersion 25° C., 2 hours
[2] = Acryl 100% thread, immersion 25° C., 3 hours
[3] = Acryl 100% thread, immersion 25° C., 24 hours
[4] = Cotton 100% thread, immersion 50° C., 2 hours
[5] = Cotton 100% thread, immersion 50° C., 3 hours
[6] = Cotton 100% thread, immersion 50° C., 24 hours
[7] = Cotton 100% thread, immersion 75° C., 2 hours
[8] = Cotton 100% thread, immersion 75° C., 3 hours
[9] = Cotton 100% thread, immersion 75° C., 24 hours
[10] = Hemp 100% thread, immersion 25° C., 2 hours
[11] = Hemp 100% thread, immersion 25° C., 3 hours
[12] = Hemp 100% thread, immersion 25° C., 24 hours
[13] = Nylon 100% thread, immersion 25° C., 2 hours
[14] = Nylon 100% thread, immersion 25° C., 3 hours
[15] = Nylon 100% thread, immersion 25° C., 24 hours
[16] = Polyester 100% thread, immersion 25° C., 2 hours
[17] = Polyester 100% thread, immersion 25° C., 3 hours
[18] = Polyester 100% thread, immersion 25° C., 24 hours
[19] = Rayon 100% thread, immersion 25° C., 2 hours
[20] = Rayon 100% thread, immersion 25° C., 3 hours
[21] = Rayon 100% thread, immersion 25° C., 24 hours
[22] = Wool 100% thread, immersion 50° C., 2 hours
[23] = Wool 100% thread, immersion 50° C., 3 hours
[24] = Wool 100% thread, immersion 50° C., 24 hours
[25] = Wool 100% thread, immersion 75° C., 2 hours
[26] = Wool 100% thread, immersion 75° C., 3 hours
[27] = Wool 100% thread, immersion 75° C., 24 hours
[28] = cotton thread and wool, immersion 50° C., 2 hours or more (text summary of Table 1)
[29] = threads of various materials, immersion 25° C., 2 hours or more (text summary of Table 2)

ϵ-polylysine [ε-polylysine]
800 ppm: ε-polylysine concentration at which L ≥ 0 was attained, E. coli (E. coli; [12]) | ε-polylysine concentration at which L ≥ 0 was attained, E. coli (E. coli; [18])
250 ppm: ε-polylysine concentration at which L ≥ 0 was attained, E. coli (E. coli; [3]) | ε-polylysine concentration at which L ≥ 0 was attained, E. coli (E. coli; [15]) | ε-polylysine concentration at which L ≥ 0 was attained, E. coli (E. coli; [21]) | ε-polylysine concentration at which L ≥ 0 was attained, S. aureus (S. aureus; [3]) | ε-polylysine concentration at which L ≥ 0 was attained, S. aureus (S. aureus; [12]) | ε-polylysine concentration at which L ≥ 0 was attained, S. aureus (S. aureus; [15]) | ε-polylysine concentration at which L ≥ 0 was attained, S. aureus (S. aureus; [18]) | ε-polylysine concentration at which L ≥ 0 was attained, S. aureus (S. aureus; [21])
500 ppm: ε-polylysine concentration at which L ≥ 0 was attained, E. coli (E. coli; [1]) | ε-polylysine concentration at which L ≥ 0 was attained, E. coli (E. coli; [2]) | ε-polylysine concentration at which L ≥ 0 was attained, E. coli (E. coli; [10]) | ε-polylysine concentration at which L ≥ 0 was attained, E. coli (E. coli; [11]) | ε-polylysine concentration at which L ≥ 0 was attained, E. coli (E. coli; [13]) | ε-polylysine concentration at which L ≥ 0 was attained, E. coli (E. coli; [14]) | ε-polylysine concentration at which L ≥ 0 was attained, E. coli (E. coli; [16]) | ε-polylysine concentration at which L ≥ 0 was attained, E. coli (E. coli; [17]) | ε-polylysine concentration at which L ≥ 0 was attained, E. coli (E. coli; [19]) | ε-polylysine concentration at which L ≥ 0 was attained, E. coli (E. coli; [20]) | concentration of ϵ-polylysine aqueous solution at which bacteriostatic effect against E. coli was attained (E. coli; [29]) | ε-polylysine concentration at which L ≥ 0 was attained, S. aureus (S. aureus; [1]) | ε-polylysine concentration at which L ≥ 0 was attained, S. aureus (S. aureus; [2]) | ε-polylysine concentration at which L ≥ 0 was attained, S. aureus (S. aureus; [4]) | ε-polylysine concentration at which L ≥ 0 was attained, S. aureus (S. aureus; [5]) | ε-polylysine concentration at which L ≥ 0 was attained, S. aureus (S. aureus; [6]) | ε-polylysine concentration at which L ≥ 0 was attained, S. aureus (S. aureus; [7]) | ε-polylysine concentration at which L ≥ 0 was attained, S. aureus (S. aureus; [8]) | ε-polylysine concentration at which L ≥ 0 was attained, S. aureus (S. aureus; [9]) | ε-polylysine concentration at which L ≥ 0 was attained, S. aureus (S. aureus; [10]) | ε-polylysine concentration at which L ≥ 0 was attained, S. aureus (S. aureus; [11]) | ε-polylysine concentration at which L ≥ 0 was attained, S. aureus (S. aureus; [13]) | ε-polylysine concentration at which L ≥ 0 was attained, S. aureus (S. aureus; [14]) | ε-polylysine concentration at which L ≥ 0 was attained, S. aureus (S. aureus; [16]) | ε-polylysine concentration at which L ≥ 0 was attained, S. aureus (S. aureus; [17]) | ε-polylysine concentration at which L ≥ 0 was attained, S. aureus (S. aureus; [19]) | ε-polylysine concentration at which L ≥ 0 was attained, S. aureus (S. aureus; [20]) | ε-polylysine concentration at which L ≥ 0 was attained, S. aureus (S. aureus; [22]) | ε-polylysine concentration at which L ≥ 0 was attained, S. aureus (S. aureus; [23]) | ε-polylysine concentration at which L ≥ 0 was attained, S. aureus (S. aureus; [24]) | ε-polylysine concentration at which L ≥ 0 was attained, S. aureus (S. aureus; [25]) | ε-polylysine concentration at which L ≥ 0 was attained, S. aureus (S. aureus; [26]) | ε-polylysine concentration at which L ≥ 0 was attained, S. aureus (S. aureus; [27]) | concentration of ϵ-polylysine aqueous solution at which bacteriostatic effect against S. aureus was attained (S. aureus; [28]) | concentration of ϵ-polylysine aqueous solution at which bacteriostatic effect against S. aureus was attained (S. aureus; [29])
2,500 ppm: ε-polylysine concentration at which L ≥ 0 was attained, E. coli (E. coli; [4]) | ε-polylysine concentration at which L ≥ 0 was attained, E. coli (E. coli; [5]) | ε-polylysine concentration at which L ≥ 0 was attained, E. coli (E. coli; [6]) | ε-polylysine concentration at which L ≥ 0 was attained, E. coli (E. coli; [7]) | ε-polylysine concentration at which L ≥ 0 was attained, E. coli (E. coli; [8]) | ε-polylysine concentration at which L ≥ 0 was attained, E. coli (E. coli; [9]) | ε-polylysine concentration at which L ≥ 0 was attained, E. coli (E. coli; [22]) | ε-polylysine concentration at which L ≥ 0 was attained, E. coli (E. coli; [23]) | ε-polylysine concentration at which L ≥ 0 was attained, E. coli (E. coli; [24]) | ε-polylysine concentration at which L ≥ 0 was attained, E. coli (E. coli; [25]) | ε-polylysine concentration at which L ≥ 0 was attained, E. coli (E. coli; [26]) | ε-polylysine concentration at which L ≥ 0 was attained, E. coli (E. coli; [27]) | concentration of ϵ-polylysine aqueous solution at which bacteriostatic effect against E. coli was attained (E. coli; [28])
